≈ marks a conversion by molar mass, not a printed value. Read-outs that look alike come from different tables or passages of the source.
Legend:
P. falciparum D6 = experiment: Antimalarial assay (plasmodial LDH activity), D6 strain; format: cell-based, Plasmodium falciparum; details: for IC50: Plasmodium falciparum, read-out: IC50 antiplasmodial activity, P. falciparum D6; for SI (Selectivity index), P. falciparum D6: VERO vs P. falciparum D6
Protocol: (§1) The assay is based on the measurement of plasmodial LDH activity. The test was conducted using a suspension of red blood cells infected with D6 or W2 strains of P. falciparum (200 µL, with 2% parasitemia, and 2% hematocrit in RPMI 1640 medium supplemented with 10% human serum and 60 µg/mL Amikacin) into the wells of a 96-well plate containing 10 µL of test samples diluted in medium at various concentrations. The plate was put in a modular incubation chamber (Billups-Rothenberg, San Diego, CA, USA); flushed with a gas mixture consisting of 90% N2, 5% O2, and 5% CO2; and incubated for 72 h at 37 °C. Parasitic LDH activity was measured by utilizing Malstat reagent (Flow Inc., Portland, OR, USA). Briefly, 20 µL of the incubation mixture was combined with 100 µL of the Malstat reagent and incubated at room temperature for 30 min. Then, twenty microliters of a 1:1 mixture of NBT/PES (Sigma, St. Louis, MO, USA) was added and the plate was further incubated in the dark for 1 h. The reaction was then stopped by the addition of 100 µL of a 5% acetic acid solution. The plate was read at 650 nm using the EL-340 Biokinetics Reader (Bio-Tek Instruments, Winooski, VT, USA). The dose–response curves were used to calculate IC50 values. […] Dimethyl sulfoxide (0.25%) was used as vehicle control.

P. falciparum W2 = experiment: Antimalarial assay (plasmodial LDH activity), W2 strain; format: cell-based, Plasmodium falciparum; details: for IC50: Plasmodium falciparum, read-out: IC50 antiplasmodial activity, P. falciparum W2; for SI (Selectivity index), P. falciparum W2: VERO vs P. falciparum W2
Protocol: as §1

VERO = experiment: Cytotoxicity toward mammalian kidney fibroblasts (Vero); format: cell-based; details: Chlorocebus sabaeus, VERO cells
C. neoformans = experiment: Antimicrobial susceptibility testing (modified CLSI), C. neoformans; format: cell-based, Cryptococcus neoformans
From the text: (§2) The microorganism strains that were employed to test the antimicrobial activity were Candida albicans Pinh, C. neoformans Pinh, Aspergillus fumigatus Pinh, methicillin-resistant Staphylococcus aureus Pinh (MRS), E. coli Pinh, Pseudomonas aeruginosa Pinh, Klebsiella pneumoniae Pinh, and Vancomycin-resistant Enterococci (VRE) Pinh. The strains were bought from the American Type Culture Collection. A modified version of the CLSI methodology was used for the susceptibility testing. A final DMSO concentration of 1% was maintained in the assay by serially diluting all samples in 20% DMSO/saline and transferring them in duplicate to 384 well flat-bottom microplates. Following the McFarland standard, inocula were created by adjusting the OD630 of microbe suspensions in incubation broth. C. albicans was cultured in RPMI 1640 broth (2% dextrose, 0.03% glutamine, and MOPS at pH 6); C. neoformans in Sabouraud Dextrose; MRS, VRE, E. coli, K. pneumoniae, and P. aeruginosa in cation-adjusted Mueller–Hinton at pH 7.3, and A. fumigatus in RPMI 1640 broth (2% dextrose, 0.03% glutamine, buffered with 0.165 M MOPS at pH 7). Five percent Alamar Blue was added in A. fumigatus, VRE, and MRS. In every assay, there were drug controls for bacteria and fungi. […] A Bio-Tek plate reader was used to measure the optical density (530 nm) or fluorescence (544ex/590em) before and after incubation.

[1] = tested on: methicillin-resistant Staphylococcus aureus (MRS); experiment: Antimicrobial susceptibility testing (modified CLSI), MRS; format: cell-based
From the text: as §2

Pseudomonas aeruginosa = experiment: Antimicrobial susceptibility testing (modified CLSI), P. aeruginosa; format: cell-based
From the text: as §2

Klebsiella pneumoniae = experiment: Antimicrobial susceptibility testing (modified CLSI), K. pneumoniae; format: cell-based
From the text: as §2

[2] = tested on: Candida albicans, C. neoformans, Aspergillus fumigatus, MRS, E. coli, Pseudomonas aeruginosa, Klebsiella pneumoniae, VRE; experiment: Antimicrobial panel (all assayed microorganisms); format: cell-based; details: at the tested concentration
From the text: as §2

| SMILES | IC50 (P. falciparum D6; D6 strain, 72 h) [µg/mL] | IC50 (P. falciparum W2; W2 strain, 72 h) [µg/mL] | IC50 (VERO) [µg/mL] | antiplasmodial activity against P. falciparum D6 (in words) (P. falciparum D6; D6 strain) | SI (Selectivity index), P. falciparum D6 (P. falciparum D6) | SI (Selectivity index), P. falciparum W2 (P. falciparum W2) | antiplasmodial activity against P. falciparum W2 (in words) (P. falciparum W2; W2 strain) | antimicrobial activity (in words) [2] | further results |
| --- | --- | --- | --- | --- | --- | --- | --- | --- | --- |
| CCN(CC)CCCC(C)Nc1ccnc2cc(Cl)ccc12 (stereo not shown) [Chloroquine, chloroquine, reference compound] |  |  | > 0.24 |  |  |  |  |  | IC50 (P. falciparum D6; D6, 72 h): 0.026 µg/mL (≈ 0.0813 µM); IC50 (P. falciparum W2; W2, 72 h): 0.14 µg/mL (≈ 0.438 µM) |
| OC(Cn1cncn1)(Cn1cncn1)c1ccc(F)cc1F [Fluconazole, fluconazole] |  |  |  |  |  |  |  |  | IC50 antimicrobial activity, C. neoformans (C. neoformans): 4.684 µg/mL (≈ 15.3 µM); IC50 (C. neoformans; Cryptococcus neoformans): 4.68 µg/mL (≈ 15.3 µM) |
| C[C@@H](O)[C@H]1C(=O)N2C(C(=O)O)=C(S[C@@H]3CN[C@H](C(=O)N(C)C)C3)[C@H](C)[C@H]12 [Meropenem, meropenem] |  |  |  |  |  |  |  |  | IC50 [1]: 46.9 µg/mL (≈ 122 µM); IC50 (Pseudomonas aeruginosa): 28.7 µg/mL (≈ 74.8 µM); IC50 antimicrobial activity, K. pneumoniae (Klebsiella pneumoniae): 9.143 µg/mL (≈ 23.8 µM); IC50 antimicrobial activity, K. pneumoniae (Klebsiella pneumoniae; listed as meropenem): 43.94 µg/mL (≈ 115 µM) |

More lines, main results first:

| IC50 (P. falciparum D6; D6 strain, 72 h) [µg/mL] | IC50 (P. falciparum W2; W2 strain, 72 h) [µg/mL] | SMILES | IC50 (VERO) [µg/mL] | antiplasmodial activity against P. falciparum D6 (in words) (P. falciparum D6; D6 strain) | SI (Selectivity index), P. falciparum D6 (P. falciparum D6) | SI (Selectivity index), P. falciparum W2 (P. falciparum W2) | antiplasmodial activity against P. falciparum W2 (in words) (P. falciparum W2; W2 strain) | antimicrobial activity (in words) [2] | further results |
| --- | --- | --- | --- | --- | --- | --- | --- | --- | --- |
| 1.57 (≈ 8.53 µM) | 0.61 (≈ 3.31 µM) | COC(=O)c1cc(O)c(O)c(O)c1 [compound 3, methyl gallate] | > 4.76 | remarkable antiplasmodial activity | >3 | >7.8 | remarkable antiplasmodial activity | no exhibition of antimicrobial activity |  |
| 4.72 (≈ 7.46 µM) | 2.91 (≈ 4.6 µM) | C[C@@]12C[C@@]3(O)O[C@@H](O1)[C@]1(COC(=O)c4ccccc4)[C@@H]3C[C@]12O[C@@H]1O[C@H](COC(=O)c2cc(O)c(O)c(O)c2)[C@@H](O)[C@H](O)[C@H]1O [compound 5, galloyl paeoniflorin] | > 4.76 | remarkable antiplasmodial activity | >1 | >1.6 | remarkable antiplasmodial activity | no exhibition of antimicrobial activity |  |

Reference: paper PMC9739537, “Bioassay-Guided Fractionation with Antimalarial and Antimicrobial Activities of Paeonia officinalis” (Molecules, 2022)
